From patent publication US20130197085A1, “AGENT AND METHOD FOR STABILIZING MEMBRANE PROTEIN” (priority 2007, published 2013)

Molecular target: T1, BSEP expressing on canalicular membrane (Rattus norvegicus, UniProt O70127)
T1 construct: from tissue; host or cells: liver of male SD rats: in vivo for A27, canalicular membrane vesicles for A28 and A29
T1 sequence (O70127 1-1321): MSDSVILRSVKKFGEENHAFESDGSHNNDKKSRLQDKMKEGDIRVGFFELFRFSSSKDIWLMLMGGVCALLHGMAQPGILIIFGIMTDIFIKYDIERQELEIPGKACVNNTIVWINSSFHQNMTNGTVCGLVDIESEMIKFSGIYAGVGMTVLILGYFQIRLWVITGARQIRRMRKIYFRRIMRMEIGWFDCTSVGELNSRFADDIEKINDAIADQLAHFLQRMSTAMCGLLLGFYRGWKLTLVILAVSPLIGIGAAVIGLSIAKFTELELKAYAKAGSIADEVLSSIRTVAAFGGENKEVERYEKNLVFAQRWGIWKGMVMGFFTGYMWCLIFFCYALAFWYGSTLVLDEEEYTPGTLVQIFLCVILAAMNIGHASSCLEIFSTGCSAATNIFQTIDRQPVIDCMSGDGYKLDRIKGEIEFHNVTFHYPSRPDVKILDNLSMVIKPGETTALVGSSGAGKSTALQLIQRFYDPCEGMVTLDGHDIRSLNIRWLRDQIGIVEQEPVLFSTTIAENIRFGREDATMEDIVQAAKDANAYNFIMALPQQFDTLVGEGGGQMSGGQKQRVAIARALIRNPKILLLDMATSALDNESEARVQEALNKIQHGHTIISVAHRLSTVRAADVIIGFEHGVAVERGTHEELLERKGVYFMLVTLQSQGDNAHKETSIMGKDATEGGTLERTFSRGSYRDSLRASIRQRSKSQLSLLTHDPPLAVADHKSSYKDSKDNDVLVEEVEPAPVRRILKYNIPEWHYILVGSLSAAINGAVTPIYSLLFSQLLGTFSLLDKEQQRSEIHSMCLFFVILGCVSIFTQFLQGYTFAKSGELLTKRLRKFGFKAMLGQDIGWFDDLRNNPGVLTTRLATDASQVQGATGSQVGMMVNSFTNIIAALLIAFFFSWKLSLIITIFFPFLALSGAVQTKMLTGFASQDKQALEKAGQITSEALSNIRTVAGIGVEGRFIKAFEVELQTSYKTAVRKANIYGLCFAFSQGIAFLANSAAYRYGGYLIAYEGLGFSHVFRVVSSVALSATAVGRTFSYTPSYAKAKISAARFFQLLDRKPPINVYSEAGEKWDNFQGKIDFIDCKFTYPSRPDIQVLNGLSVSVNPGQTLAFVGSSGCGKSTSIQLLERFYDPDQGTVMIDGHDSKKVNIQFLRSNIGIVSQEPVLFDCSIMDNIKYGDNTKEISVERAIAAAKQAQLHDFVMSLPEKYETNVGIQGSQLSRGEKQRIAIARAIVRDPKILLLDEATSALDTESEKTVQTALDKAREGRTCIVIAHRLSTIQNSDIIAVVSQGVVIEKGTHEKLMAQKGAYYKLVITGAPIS
Test: [^3H] TC injection experiment in vivo with pharmacokinetic analysis
Design: species or system SD rat
Settings: for CLbile, liver / CLbile, plasma / CLtotal / Css, liver / Css, plasma: [^3H] TC, mean ± standard error
Experimental: Male SD rats (6- to 7-week-old) were purchased from Nippon SLC. All the animals were bred under day-night reversal conditions. They were treated under standard conditions based on the protection of animals. Feed and water were given without any limitation.
It is to be noted that the present study was carried out in accordance with the guidelines determined by the animal experiment committee in the university. 4PBA or a vehicle was given to each SD rat via a tube, for a certain period of time (5, 10, and 15 days), at various doses ([…]). After completion of the 4PBA treatment, a [^3H] TC injection experiment was carried out in vivo (see Hirano et al., Mol Pharmacol 68: 800-807. 2005). [^3H] TC dissolved in a normal saline was injected into each rat, via a cannula inserted into the femoral vein thereof, at a rate of 70 ng/min/kg for 90 minutes. Blood and bile were collected for a certain period of time. Radioactivity in plasma, bile, and liver was measured.
The total clearance of plasma (CLtotal) the clearance of bile standardized with circulating plasma (CLbile, plasma), and the clearance of bile standardized with the concentration in the liver (CLbile, liver) were calculated using the following formulae:
CLbile, plasma=Vss, bile/Css, plasma; and
CLbile, liver=Vss, bile/Css, liver
(wherein “I,” “Css, plasma,” Vss, bile” and “Css, and liver” represent, respectively, an injection rate (ng/min/kg), a plasma concentration in a steady state ([…]), a bile elimination rate in a steady state (ng/min/kg), and a mean liver concentration (ng/ml)). The plasma concentration in a steady state (Css, plasma) indicates the mean value of plasma [^3H] TC concentrations at time points of 15, 30, 60, and 90 minutes. The bile elimination rate (Vss, bile) indicates the mean value of the bile elimination rates of [^3H] TC at time points of 10-15 minutes, 25-30 minutes, 55-60 minutes, and 85-90 minutes. The mean liver concentration (Css, liver) indicates the mean value of liver [^3H] TC concentrations at the termination of the in vivo experiment.

[1] = 4PBA (0.2 g/kg/day), N = 3, SD rats
[2] = 4PBA (0.6 g/kg/day), N = 9, SD rats
[3] = 4PBA (2.4 g/kg/day), N = 3, SD rats

With `O=C(O)CCCc1ccccc1` [4PBA, 4-phenylbutyric acid] as the compound, how does the “CLbile, liver with respect to [^3H] TC, greater than vehicle-treated rats” value (0.6 k/kg/day for 10 days) read?
Its value is 2 times.

What about the “CLbile, plasma with respect to [^3H] TC, 4PBA-treated vs vehicle-treated SD rats” value (0.6 k/kg/day for 10 days) of the same compound?
Its value is “no significant difference”.

What about the “CLtotal with respect to [^3H] TC, 4PBA-treated vs vehicle-treated SD rats” value (0.6 k/kg/day for 10 days) of the same compound?
The value was “no significant difference”.

And the “Css, liver of [^3H] TC as fraction of that in vehicle-treated SD rats” value (0.6 k/kg/day for 10 days)?
The value was “½”.

And the “Css, plasma of [^3H] TC, 4PBA-treated vs vehicle-treated SD rats” value (0.6 k/kg/day for 10 days)?
The value was “no significant difference”.

What about the “Vss, bile of [^3H] TC, 4PBA-treated vs vehicle-treated SD rats” value (0.6 k/kg/day for 10 days) of the same compound?
Its value is “no significant difference”.

And the “CLbile, liver” value [1]?
The value was 19.0 ± 3.9 mL/min/kg.

What about the “CLbile, plasma” value [1] of the same compound?
Its value is 26.3 ± 2.0 mL/min/kg.

And the CLtotal [1]?
The CLtotal was 26.6 ± 3.8 mL/min/kg.

What about the “Css, liver” value [1] of the same compound?
Its value is 3.8 ± 0.7 ng/mL.

What about the “Css, plasma” value [1] of the same compound?
The value was 2.6 ± 0.2 ng/mL.

What about the “CLbile, liver” value [2] of the same compound?
The value was 29.3 ± 6.1 mL/min/kg.

What about the “CLbile, plasma” value [2] of the same compound?
Its value is 32.3 ± 2.9 mL/min/kg.

What about the CLtotal [2] of the same compound?
Its CLtotal is 30.7 ± 3.7 mL/min/kg.

What about the “Css, liver” value [2] of the same compound?
The value was 2.6 ± 0.5 ng/mL.

And the “Css, plasma” value [2]?
The value was 2.0 ± 0.2 ng/mL.

And the “CLbile, liver” value [3]?
Its value is 19.2 ± 3.2 mL/min/kg.

What about the “CLbile, plasma” value [3] of the same compound?
Its value is 23.9 ± 4.7 mL/min/kg.

What about the CLtotal [3] of the same compound?
Its CLtotal is 29.6 ± 3.5 mL/min/kg.

And the “Css, liver” value [3]?
The value was 5.9 ± 1.8 ng/mL.

And the “Css, plasma” value [3]?
Its value is 3.3 ± 0.7 ng/mL.

What about the “CLbile, liver” value (4PBA (5 days), N = 6, SD rats) of the same compound?
Its value is 21.7 ± 3.0 mL/min/kg.

And the “CLbile, plasma” value (4PBA (5 days), N = 6, SD rats)?
Its value is 32.3 ± 8.5 mL/min/kg.

And the CLtotal (4PBA (5 days), N = 6, SD rats)?
The CLtotal was 26.6 ± 3.8 mL/min/kg.

And the “Css, liver” value (4PBA (5 days), N = 6, SD rats)?
The value was 3.1 ± 0.5 ng/mL.

And the “Css, plasma” value (4PBA (5 days), N = 6, SD rats)?
Its value is 2.3 ± 0.3 ng/mL.

What about the “CLbile, liver” value (4PBA (10 days), N = 9, SD rats) of the same compound?
The value was 29.3 ± 6.1 mL/min/kg.

What about the “CLbile, plasma” value (4PBA (10 days), N = 9, SD rats) of the same compound?
The value was 32.3 ± 2.9 mL/min/kg.

And the CLtotal (4PBA (10 days), N = 9, SD rats)?
The CLtotal was 30.7 ± 3.7 mL/min/kg.

And the “Css, liver” value (4PBA (10 days), N = 9, SD rats)?
The value was 2.6 ± 0.5 ng/mL.

And the “Css, plasma” value (4PBA (10 days), N = 9, SD rats)?
The value was 2.0 ± 0.2 ng/mL.

What about the “CLbile, liver” value (4PBA (15 days), N = 3, SD rats) of the same compound?
The value was 29.9 ± 1.5 mL/min/kg.

What about the “CLbile, plasma” value (4PBA (15 days), N = 3, SD rats) of the same compound?
The value was 33.2 ± 2.0 mL/min/kg.

And the CLtotal (4PBA (15 days), N = 3, SD rats)?
Its CLtotal is 27.5 ± 2.7 mL/min/kg.

What about the “Css, liver” value (4PBA (15 days), N = 3, SD rats) of the same compound?
Its value is 2.3 ± 0.2 ng/mL.

What about the “Css, plasma” value (4PBA (15 days), N = 3, SD rats) of the same compound?
The value was 2.1 ± 0.2 ng/mL.

And the side effects (SD rats, under all conditions (various times and doses))?
Its side effects is “No clear side effects were recognized”.
